The values that follow come from ChEMBL document CHEMBL1201862, “PubChem BioAssay data set” (2004).

Test [1] addresses T1, Corticotropin-releasing factor receptor 2/Corticotropin-releasing factor-binding protein (Homo sapiens, UniProt P24387+Q13324).
T1 sequence (Q13324 whole entry): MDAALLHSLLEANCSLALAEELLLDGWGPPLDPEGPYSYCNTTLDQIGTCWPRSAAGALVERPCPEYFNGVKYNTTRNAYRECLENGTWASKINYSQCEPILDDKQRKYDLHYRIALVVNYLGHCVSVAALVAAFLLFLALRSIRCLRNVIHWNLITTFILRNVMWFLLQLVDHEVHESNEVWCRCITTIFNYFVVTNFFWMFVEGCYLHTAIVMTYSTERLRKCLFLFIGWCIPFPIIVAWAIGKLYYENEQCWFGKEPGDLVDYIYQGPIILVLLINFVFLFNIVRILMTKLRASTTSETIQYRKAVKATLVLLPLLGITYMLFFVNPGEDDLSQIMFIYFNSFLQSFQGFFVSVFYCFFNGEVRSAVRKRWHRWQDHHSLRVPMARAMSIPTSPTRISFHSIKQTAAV
T1 sequence (P24387 whole entry): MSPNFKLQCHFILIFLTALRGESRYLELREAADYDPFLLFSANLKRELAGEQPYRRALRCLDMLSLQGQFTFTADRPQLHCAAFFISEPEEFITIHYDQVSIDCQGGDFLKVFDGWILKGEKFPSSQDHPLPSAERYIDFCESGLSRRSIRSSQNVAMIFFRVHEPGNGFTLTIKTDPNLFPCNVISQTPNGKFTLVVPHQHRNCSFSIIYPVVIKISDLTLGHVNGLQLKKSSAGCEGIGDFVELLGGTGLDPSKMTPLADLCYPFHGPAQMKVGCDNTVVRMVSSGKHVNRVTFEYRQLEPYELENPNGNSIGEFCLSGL
Kind of test: Dose Response confirmation of uHTS hits for small molecule antagonists of the CRF-binding protein and CRF-R2 receptor complex. It is filed as functional. The settings on record: read-out: IC50_Mean.

In test [2] the target is T1, Corticotropin-releasing factor receptor 2/Corticotropin-releasing factor-binding protein. The test is described as follows: activators of CRF receptor 2 with binding protein – uHTS hits, confirmation (AID 602473). It is filed as functional. Conditions: read-out: EC50_Mean.
Test [3] concerns Streptococcus sp. 'group A'. The test is described as follows: Streptococcus pyogenes SK(-)GAS viability under kanamycin – luminescence, BacTiterGlo, confirmation, counter-screen for streptokinase expression inhibitor project, dose response (AID 1900). It is filed as functional, organism-based. A general note: A counterscreen serves to expose hits that act by an unwanted route or on another target.

A further test deals with T2, Streptokinase A (Streptococcus pyogenes serotype M1, UniProt P10520).
T2 sequence (P10520 whole entry): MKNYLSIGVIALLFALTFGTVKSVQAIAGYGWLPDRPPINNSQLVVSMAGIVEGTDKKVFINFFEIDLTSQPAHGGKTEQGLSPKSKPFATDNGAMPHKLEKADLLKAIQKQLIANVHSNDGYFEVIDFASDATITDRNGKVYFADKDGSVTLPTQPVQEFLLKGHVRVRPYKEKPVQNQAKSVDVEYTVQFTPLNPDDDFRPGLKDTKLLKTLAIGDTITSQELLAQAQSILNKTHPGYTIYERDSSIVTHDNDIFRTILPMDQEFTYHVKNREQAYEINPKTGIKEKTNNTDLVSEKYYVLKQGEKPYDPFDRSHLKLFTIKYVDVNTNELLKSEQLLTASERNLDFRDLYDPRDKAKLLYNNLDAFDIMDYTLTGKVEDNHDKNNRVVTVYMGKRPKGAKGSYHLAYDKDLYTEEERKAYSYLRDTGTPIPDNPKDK
Kind of test: viability-normalized secreted streptokinase activity reduction – plasminogen activation absorbance, OD405, dose response (AID 1914).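 Note: secreted streptokinase activity via plasminogen activation per viability signal from cell pellet.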 The format is functional, Streptococcus pyogenes M1 GAS.

In the next test the test system is Streptococcus. The test is described as follows: GAS UMAA2166 growth inhibition – luminescence, BacTiterGlo, counter-screen for streptokinase expression inhibitor project, dose response (AID 1915).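 Note: potency for reduction of bacterial viability or growth.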 It is filed as functional, organism-based.
Test [4] addresses T3, RNA-binding protein pos-1 (Caenorhabditis elegans, UniProt G5EF15).
T3 sequence (G5EF15 whole entry): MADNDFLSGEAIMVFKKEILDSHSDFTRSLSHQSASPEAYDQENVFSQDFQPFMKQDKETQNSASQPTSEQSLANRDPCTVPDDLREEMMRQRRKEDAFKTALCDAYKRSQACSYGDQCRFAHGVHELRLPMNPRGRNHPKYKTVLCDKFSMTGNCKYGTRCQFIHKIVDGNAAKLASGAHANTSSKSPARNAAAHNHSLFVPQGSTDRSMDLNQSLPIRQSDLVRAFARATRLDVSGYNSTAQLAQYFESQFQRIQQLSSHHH
The test is described as follows: disruptors of C. elegans POS-1 RNA interaction – biochemical, fluorescence polarization, dose response (AID 1964).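 Note: purified POS-1 fused to maltose binding protein made in E. coli; potency of compounds blocking POS-1 binding to fluorescent RNA.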 Background: Fluorescence polarisation rises when a labelled molecule tumbles more slowly, as on binding a larger partner.

The target in test [5] is T4, Zinc finger protein mex-5 (Caenorhabditis elegans, UniProt Q9XUB2).
T4 sequence (Q9XUB2 whole entry): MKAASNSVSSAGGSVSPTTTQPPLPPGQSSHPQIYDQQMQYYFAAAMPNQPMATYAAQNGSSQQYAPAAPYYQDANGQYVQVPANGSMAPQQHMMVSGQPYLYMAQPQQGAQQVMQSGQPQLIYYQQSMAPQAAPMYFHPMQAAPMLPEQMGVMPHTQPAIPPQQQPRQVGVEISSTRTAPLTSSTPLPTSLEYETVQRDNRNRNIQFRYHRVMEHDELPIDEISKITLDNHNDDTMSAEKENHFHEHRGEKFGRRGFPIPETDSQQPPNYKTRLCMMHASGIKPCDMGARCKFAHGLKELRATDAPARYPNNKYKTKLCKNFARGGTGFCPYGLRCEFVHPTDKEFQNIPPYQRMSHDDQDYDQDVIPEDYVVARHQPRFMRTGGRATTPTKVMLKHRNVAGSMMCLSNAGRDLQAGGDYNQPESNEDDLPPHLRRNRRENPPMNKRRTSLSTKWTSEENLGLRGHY
The test is described as follows: potency of MEX-5 RNA-binding blockers – biochemical, C. elegans, fluorescence polarization, dose response (AID 1960).

The next test has as its system H9c2. Kind of test: cells. It is filed as functional, cell-based. Conditions: Rattus norvegicus, H9c2, Myocardium.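 Note: confirmatory concentration-response retest of ultra-high-throughput screening hits for modulation of myocardial damage; cell death induced by hydrogen peroxide oxidative stress; compound pretreatment for 60 min then peroxide exposure for 2 h; potency is for protecting the cells against peroxide damage rather than for killing them.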
Test [6] can be described thus: NIH-3T3 fibroblast cytotoxicity, dose response, cytotoxicity control, cell-based, fluorescence, Alamar Blue, secondary assay (AID 2327).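 Note: NIH-3T3 mouse fibroblasts cultured with fluconazole at 8 µg/mL.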 It is filed as functional.
Test [7] can be described thus: fluconazole-exposed Candida albicans growth modulators – fluorescence, retest, confirmation (AID 2467). The format is functional, cell-based.
Test [8] can be described thus: Trypanosoma cruzi growth suppression in host cells – NIH3T3 host cells, beta-gal luminescence, confirmation (AID 2044).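 Note: intracellular parasites grown in NIH/3T3 mouse fibroblasts as host cells; luminescent beta-galactosidase reporter signal from transgenic T. cruzi replicating inside host cells; inhibitors lower the luminescence signal.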 It is filed as functional, cell-based.
The nature of test [9]: NIH3T3 cell viability loss – ATP luminescence, mouse fibroblasts, counter-screen, dose response (AID 2010).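 Note: cells exposed to compound for about 90 hours before reading.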 The format is functional, cell-based.

The source made the active and inactive calls. Cut-off read from the data, not from the text of the source, for most assays here: actives have a measured EC50 and inactives only a lower limit.

Take `CC(C)NC(=O)CN1C(=O)CSc2ccc(S(=O)(=O)N3CCCC3)cc21`: the IC50 in test [1] is > 47.1 µM (inactive). In [2], the EC50 is > 53 µM (inactive).
With `O=c1c2ccccc2c(-c2ccccc2)nn1Cc1c(Cl)cccc1Cl`, the EC50 in test [3] was 7.76 µM (active); at Streptokinase A, 17 µM (active); in the test on Streptococcus, > 150 µM (not active).
Take `CN1/C(=C/C=C(C#N)C#N)C(C)(C)c2ccccc21`: the figures for the EC50 in test [4] and in [5] were 248 µM (active) and > 300 µM (inconclusive), respectively.
With `Cc1ccc(N2C(=O)C3CC(c4ccccc4)=C4C5C=CC(C6C(=O)N(c7ccc(C)cc7)C(=O)C56)C4C3C2=O)cc1` (stereo unspecified), the EC50 in [3] is 1.41 µM (active); on Streptokinase A, > 150 µM (not active); with Streptococcus, 30.9 µM (active).
With `N#Cc1cnn2cc(-c3ncc(C(F)(F)F)cc3Cl)cnc12`, in the test on H9c2, the IC50 was > 79 µM (inactive).
Regarding `COC(=O)c1ccc(N2CCN(C)CC2)c(NC(=O)COc2ccc(C)cc2)c1`, the EC50 (in [3]; on Streptokinase A; in the test on Streptococcus) was > 150 µM (not active) throughout.
`CCOC(=O)C1=c2/c(=C/c3ccncc3)c(N)c(C(=O)OC)n2C(=O)C(c2ccncc2)S1` (stereo unspecified): the IC50 in the test on H9c2 was > 79 µM (inactive).
In the case of `O=C(CSc1ccccc1)N(c1ccc(Br)cc1)c1nccs1`, the IC50 in test [1] was > 47.1 µM (inactive). In addition, in test [2], the EC50 was > 53 µM (inactive).
For `O=C(NCC1CCCO1)C(c1ccc(F)cc1)N(Cc1ccc(F)cc1)C(=O)Cn1nnc(-c2cccs2)n1` (stereo unspecified), the EC50 is > 160 µM (inactive) in test [6] and > 38 µM (not active) in test [7].
With `N#CCC(N)=C(C#N)C#N`, the EC50 was 54.9 µM (active) in [4] and 169 µM (active) in test [5].
As for `COc1ccccc1N1CCN(Cc2c(F)cccc2Cl)CC1`, the IC50 in test [1] is > 47.1 µM (inactive). For the same compound, the EC50 in test [2] was > 53 µM (inactive).
Turning to `N#CCCN(C(=O)COC(=O)CCc1nc(O)c2ccccc2n1)c1ccccc1F`, the IC50 with H9c2 was 13 µM (active).
On to `Cc1cc(N)n(-c2nc(-c3cccnc3)nc3ccccc23)n1`, for which the IC50 with H9c2 was 11.6 µM (active).
With `CCn1c(=O)cc(OCC(=O)Nc2ccccc2C#N)c2ccccc21`, the IC50 with H9c2 was 18.1 µM (active).
Regarding `N#CC1=C(N)OC2=C(C(=O)CCC2)C1c1ccccc1` (stereo unspecified), the EC50 in test [4] and in test [5] was > 300 µM (not active) in each case.
As to `COC(=O)c1cc(C)sc1NC(=O)c1cccnc1`, the EC50 was 62.4 µM (active) in test [6] and > 38 µM (not active) in test [7].
`CCc1ccc(/C=N/n2c(S)nnc2C2CCCCC2)cc1`: the EC50 in [3] was 11.1 µM (active); at Streptokinase A it was > 150 µM (not active); in the test on Streptococcus, 15.1 µM (active).
Take `COc1ccc(-c2cc3ccc(OCC(N)=O)cc3oc2=O)cc1OC`: the EC50 in test [4] and in test [5] was > 300 µM (not active) throughout.
`COc1ccc(C(=O)NNC(=O)CCc2nc(O)c3ccccc3n2)cc1`: the IC50 with H9c2 was 26 µM (active).
In the case of `CNC(=O)c1c(NC(=O)c2ccc(S(=O)(=O)N3CCCCC3C)cc2)sc2c1CCN(C)C2` (stereo unspecified), the EC50 in test [4] and in test [5] was > 300 µM (not active) each time.
As to `C/C(=N/Nc1nc(-c2ccccc2F)nc2ccccc12)c1ccccc1O`, the EC50 in [3] is 10.2 µM (active); on Streptokinase A it was > 150 µM (not active); with Streptococcus, > 150 µM (not active).
For `COc1ccc(OC)c(N(CC(=O)Nc2cccnc2)S(=O)(=O)c2ccc(OC)c(OC)c2)c1`, the IC50 with H9c2 is 12 µM (active).
Turning to `COc1cc(C(=O)NNC(=S)NC(=O)c2ccc(F)cc2)cc(OC)c1OC`, the EC50 in test [3] is 3.25 µM (active); on Streptokinase A it was > 150 µM (not active); in test [8], 0.791 µM (active); in test [9] it was 14.9 µM (active); with Streptococcus it was 15.5 µM (active).
Consider `O=S(=O)(c1cccc(-c2csc(-c3cccnc3)n2)c1)N1CCOCC1`, for which the EC50 in test [4] and in [5] was > 300 µM (not active) in each case.
Turning to `COc1cc(NC(=O)CSc2nc3ncnc(N)c3[nH]2)c(C(=O)O)cc1OC`, the EC50 was 29.2 µM (active) in test [4] and 30.3 µM (active) in test [5].
Regarding `Cc1cc2ccccc2c(O)n1`, the IC50 with H9c2 is 23.5 µM (active).
Regarding `CC(C)COc1nc2ccccc2c(=O)n1OCC(=O)O`, the IC50 with H9c2 was > 79 µM (inactive).
As to `CCOC(=O)c1cc(C(=O)OCC)cc(-n2c(C)cc(C(=O)CN3CCOCC3)c2C)c1`, the EC50 in test [4] and in test [5] was > 300 µM (not active) each time.
Take `CC(C(=O)c1ccccc1)[n+]1cccc(Br)c1` (stereo unspecified): the EC50 is > 150 µM (inactive) in test [6] and > 38 µM (not active) in test [7].
On to `O=C(O)c1nn(CCOc2ccc(Br)cc2)c(=O)c2ccccc12`, for which the IC50 in the test on H9c2 is > 79 µM (inactive).
With `Cn1c(N)c(C(=O)COC(=O)/C=C/c2ccc(OC(F)F)cc2)c(=O)n(C)c1=O`, the results for the EC50 (in test [3]; on Streptokinase A; with Streptococcus) were 3.34 µM (active), > 150 µM (not active) and 13.4 µM (active), respectively.
For `COc1cc(/C=N/NC(=O)c2ccccc2)ccc1OS(=O)(=O)c1ccccc1`, in the test with H9c2, the IC50 was > 79 µM (inactive).
On to `O=S(=O)(/N=C(\c1ccc(F)cc1)N1CCOCC1)c1ccccc1`, for which the EC50 in test [2] was > 53 µM (inactive).
In the case of `CCn1c(=O)n(CC(=O)N2CCN(c3ccccc3F)CC2)c(=O)c2ccccc21`, the EC50 was > 160 µM (inactive) in test [6] and > 38 µM (not active) in [7].
In the case of `Oc1nc(Nc2ccc(F)cc2)sc1/C=C1\C=Nc2ccccc21`, the EC50 in [3] was 7.02 µM (active); at Streptokinase A it was > 150 µM (not active); in the test on Streptococcus, 18.4 µM (active).
As to `N#Cc1ccccc1S(=O)(=O)N1CCN(c2nc(-c3cccnc3)nc3ccccc23)CC1`, the IC50 in the test with H9c2 is 27.7 µM (active).
Regarding `CC1CCCC(C)N1C(=O)CSc1nc(O)c2ccccc2n1` (stereo unspecified), the IC50 in the test on H9c2 was > 79 µM (inactive).
Still for that read-out and setting: the result for `Cc1nc(SCC(=O)NCc2ccc(F)cc2)c2c(=O)n(C)c(=O)n(C)c2n1` reads > 79 µM (inactive).
